Laboratory results reported in ChEMBL document CHEMBL3885861, “Open TG-GATES”.

Species on record: Rattus norvegicus
Assay: Open TG-GATES - Regimen: Single
Assay type: toxicity, organism-based, Sprague-Dawley
Parameters: regimen Single, gender Male, age 6 weeks
Details: in vivo, po, route gavage; for APTT / Bas / Eos / Fbg / Hb / Ht / Lym / MCH / MCHC / MCV / Mono / Neu / PT / Plat / RBC / Ret / WBC: tissue Blood; for KIDNEY_TOTAL: tissue Kidney; for LIVER: tissue Liver; for A/G / ALP / ALT / AST / BUN / CRE / Ca / Cl / DBIL / GLC / IP / K / LDH / Na / PL / RALB / TBIL / TC / TG / TP / gamma-GTP: tissue Plasma
[1] = 100 mg/kg, 3 h, dose level Middle
[2] = 100 mg/kg, 6 h, dose level Middle
[3] = 100 mg/kg, 9 h, dose level Middle
[4] = 100 mg/kg, 24 h, dose level Middle
[5] = 500 mg/kg, 3 h, dose level High
[6] = 500 mg/kg, 6 h, dose level High
[7] = 500 mg/kg, 9 h, dose level High
[8] = 500 mg/kg, 24 h, dose level High

CN(CCOc1ccc(CC2SC(=O)NC2=O)cc1)c1ccccn1.O=C(O)/C=C\C(=O)O (stereo not drawn) [ROSIGLITAZONE MALEATE]
TERMINAL_BW [1]: 205.4 g
APTT [1]: 16.2 s
Bas [1]: 0%
Eos [1]: 1%
Fbg [1]: 217.8 mg/dL
Hb [1]: 13 g/dL
Ht [1]: 39.5%
Lym [1]: 77.2%
MCH [1]: 21.3 pg
MCHC [1]: 32.8%
MCV [1]: 65 fL
Mono [1]: 7.8%
Neu [1]: 14.4%
PT [1]: 12.2 s
Plat [1]: 119.4 x10_4/uL
RBC [1]: 607.6 x10_4/ul
Ret [1]: 8.6%
WBC [1]: 105 x10_2/uL
KIDNEY_TOTAL [1]: 0.8 g
LIVER [1]: 9.5 g
A/G [1]: 2.2
ALP [1]: 1374 IU/L
ALT [1]: 36.6 IU/L
AST [1]: 74.6 IU/L
BUN [1]: 13.4 mg/dL
CRE [1]: 0.4 mg/dL
Ca [1]: 11.6 mg/dL
Cl [1]: 104 meq/L
DBIL [1]: 0.014 mg/dL
GLC [1]: 189.2 mg/dL
IP [1]: 8.9 mg/dL
K [1]: 4.4 meq/L
LDH [1]: 107.8 IU/L
Na [1]: 139.6 meq/L
PL [1]: 133.2 mg/dL
RALB [1]: 3.6 g/dL
TBIL [1]: 0.046 mg/dL
TC [1]: 78.8 mg/dL
TG [1]: 75.6 mg/dL
TP [1]: 5.3 g/dL
gamma-GTP [1]: 0.8 IU/L
TERMINAL_BW [2]: 206.8 g
APTT [2]: 16.7 s
Bas [2]: 0%
Eos [2]: 1%
Fbg [2]: 221.8 mg/dL
Hb [2]: 12.4 g/dL
Ht [2]: 37.5%
Lym [2]: 67.4%
MCH [2]: 20.7 pg
MCHC [2]: 33.1%
MCV [2]: 62.5 fL
Mono [2]: 9.8%
Neu [2]: 22%
PT [2]: 12.4 s
Plat [2]: 124.2 x10_4/uL
RBC [2]: 600 x10_4/ul
Ret [2]: 8.9%
WBC [2]: 105.2 x10_2/uL
KIDNEY_TOTAL [2]: 0.8 g
LIVER [2]: 9 g
A/G [2]: 2.3
ALP [2]: 1392.2 IU/L
ALT [2]: 33.6 IU/L
AST [2]: 64 IU/L
BUN [2]: 10.2 mg/dL
CRE [2]: 0.4 mg/dL
Ca [2]: 11.1 mg/dL
Cl [2]: 104.2 meq/L
DBIL [2]: 0.016 mg/dL
GLC [2]: 179.2 mg/dL
IP [2]: 10 mg/dL
K [2]: 4.5 meq/L
LDH [2]: 82.2 IU/L
Na [2]: 138.4 meq/L
PL [2]: 127.8 mg/dL
RALB [2]: 3.6 g/dL
TBIL [2]: 0.042 mg/dL
TC [2]: 73 mg/dL
TG [2]: 64.2 mg/dL
TP [2]: 5.2 g/dL
gamma-GTP [2]: 1 IU/L
TERMINAL_BW [3]: 198.2 g
APTT [3]: 16.2 s
Bas [3]: 0%
Eos [3]: 1%
Fbg [3]: 217 mg/dL
Hb [3]: 12.7 g/dL
Ht [3]: 38.5%
Lym [3]: 75.6%
MCH [3]: 22.1 pg
MCHC [3]: 32.9%
MCV [3]: 67.1 fL
Mono [3]: 4.8%
Neu [3]: 19%
PT [3]: 12.3 s
Plat [3]: 118.4 x10_4/uL
RBC [3]: 574.2 x10_4/ul
Ret [3]: 8.9%
WBC [3]: 85 x10_2/uL
KIDNEY_TOTAL [3]: 0.8 g
LIVER [3]: 8.3 g
A/G [3]: 2.5
ALP [3]: 1125.2 IU/L
ALT [3]: 28 IU/L
AST [3]: 62 IU/L
BUN [3]: 11.2 mg/dL
CRE [3]: 0.4 mg/dL
Ca [3]: 11.7 mg/dL
Cl [3]: 103.8 meq/L
DBIL [3]: 0.014 mg/dL
GLC [3]: 190.6 mg/dL
IP [3]: 11.3 mg/dL
K [3]: 4.3 meq/L
LDH [3]: 120.2 IU/L
Na [3]: 140.4 meq/L
PL [3]: 122.2 mg/dL
RALB [3]: 3.9 g/dL
TBIL [3]: 0.046 mg/dL
TC [3]: 70.2 mg/dL
TG [3]: 49.6 mg/dL
TP [3]: 5.5 g/dL
gamma-GTP [3]: 0.6 IU/L
TERMINAL_BW [4]: 224.2 g
APTT [4]: 16.3 s
Bas [4]: 0%
Eos [4]: 0.8%
Fbg [4]: 213.2 mg/dL
Hb [4]: 12.4 g/dL
Ht [4]: 38%
Lym [4]: 68.8%
MCH [4]: 20.9 pg
MCHC [4]: 32.7%
MCV [4]: 63.8 fL
Mono [4]: 9.4%
Neu [4]: 21.2%
PT [4]: 11.5 s
Plat [4]: 120.6 x10_4/uL
RBC [4]: 596.2 x10_4/ul
Ret [4]: 7.7%
WBC [4]: 74.8 x10_2/uL
KIDNEY_TOTAL [4]: 0.6 g
LIVER [4]: 11.2 g
A/G [4]: 2.7
ALP [4]: 1341.6 IU/L
ALT [4]: 40.2 IU/L
AST [4]: 71.2 IU/L
BUN [4]: 16.6 mg/dL
CRE [4]: 0.4 mg/dL
Ca [4]: 11.3 mg/dL
Cl [4]: 104.4 meq/L
DBIL [4]: 0.016 mg/dL
GLC [4]: 187.6 mg/dL
IP [4]: 7.8 mg/dL
K [4]: 4.5 meq/L
LDH [4]: 123.8 IU/L
Na [4]: 140 meq/L
PL [4]: 161.6 mg/dL
RALB [4]: 3.8 g/dL
TBIL [4]: 0.032 mg/dL
TC [4]: 90.6 mg/dL
TG [4]: 127.2 mg/dL
TP [4]: 5.3 g/dL
gamma-GTP [4]: 1 IU/L
TERMINAL_BW [5]: 202.9 g
APTT [5]: 16.4 s
Bas [5]: 0%
Eos [5]: 0.6%
Fbg [5]: 224.2 mg/dL
Hb [5]: 13 g/dL
Ht [5]: 39.4%
Lym [5]: 77.6%
MCH [5]: 21.2 pg
MCHC [5]: 33.1%
MCV [5]: 64.1 fL
Mono [5]: 7.8%
Neu [5]: 14.2%
PT [5]: 12.3 s
Plat [5]: 129.2 x10_4/uL
RBC [5]: 613.8 x10_4/ul
Ret [5]: 9.1%
WBC [5]: 85.4 x10_2/uL
KIDNEY_TOTAL [5]: 0.6 g
LIVER [5]: 8.9 g
A/G [5]: 2.3
ALP [5]: 1535.8 IU/L
ALT [5]: 35.8 IU/L
AST [5]: 69.6 IU/L
BUN [5]: 15 mg/dL
CRE [5]: 0.5 mg/dL
Ca [5]: 11.6 mg/dL
Cl [5]: 102.2 meq/L
DBIL [5]: 0.01 mg/dL
GLC [5]: 185.2 mg/dL
IP [5]: 10.5 mg/dL
K [5]: 4.2 meq/L
LDH [5]: 76.8 IU/L
Na [5]: 140.4 meq/L
PL [5]: 137 mg/dL
RALB [5]: 3.9 g/dL
TBIL [5]: 0.036 mg/dL
TC [5]: 84.2 mg/dL
TG [5]: 78 mg/dL
TP [5]: 5.6 g/dL
gamma-GTP [5]: 1 IU/L
TERMINAL_BW [6]: 206.5 g
APTT [6]: 16.5 s
Bas [6]: 0%
Eos [6]: 1%
Fbg [6]: 217 mg/dL
Hb [6]: 13.2 g/dL
Ht [6]: 40%
Lym [6]: 62.6%
MCH [6]: 21 pg
MCHC [6]: 32.9%
MCV [6]: 63.8 fL
Mono [6]: 11.6%
Neu [6]: 24.8%
PT [6]: 11.8 s
Plat [6]: 118.4 x10_4/uL
RBC [6]: 626.8 x10_4/ul
Ret [6]: 9.7%
WBC [6]: 75.4 x10_2/uL
KIDNEY_TOTAL [6]: 0.7 g
LIVER [6]: 8.6 g
A/G [6]: 2.4
ALP [6]: 1138.8 IU/L
ALT [6]: 30.8 IU/L
AST [6]: 69 IU/L
BUN [6]: 10 mg/dL
CRE [6]: 0.5 mg/dL
Ca [6]: 11 mg/dL
Cl [6]: 104 meq/L
DBIL [6]: 0.014 mg/dL
GLC [6]: 176.4 mg/dL
IP [6]: 10.6 mg/dL
K [6]: 4 meq/L
LDH [6]: 70.4 IU/L
Na [6]: 139.6 meq/L
PL [6]: 140.4 mg/dL
RALB [6]: 3.9 g/dL
TBIL [6]: 0.042 mg/dL
TC [6]: 89.2 mg/dL
TG [6]: 69.2 mg/dL
TP [6]: 5.5 g/dL
gamma-GTP [6]: 1 IU/L
TERMINAL_BW [7]: 203.4 g
APTT [7]: 17 s
Bas [7]: 0%
Eos [7]: 0.8%
Fbg [7]: 211.4 mg/dL
Hb [7]: 12.4 g/dL
Ht [7]: 37.6%
Lym [7]: 77.4%
MCH [7]: 21.5 pg
MCHC [7]: 33%
MCV [7]: 65.2 fL
Mono [7]: 5.2%
Neu [7]: 16.6%
PT [7]: 12.4 s
Plat [7]: 128.2 x10_4/uL
RBC [7]: 577 x10_4/ul
Ret [7]: 9.1%
WBC [7]: 77.4 x10_2/uL
KIDNEY_TOTAL [7]: 0.6 g
LIVER [7]: 7.9 g
A/G [7]: 2.6
ALP [7]: 1267.6 IU/L
ALT [7]: 28.2 IU/L
AST [7]: 65.4 IU/L
BUN [7]: 12 mg/dL
CRE [7]: 0.4 mg/dL
Ca [7]: 11.8 mg/dL
Cl [7]: 104.2 meq/L
DBIL [7]: 0.016 mg/dL
GLC [7]: 180.8 mg/dL
IP [7]: 10.9 mg/dL
K [7]: 4.6 meq/L
LDH [7]: 94.6 IU/L
Na [7]: 139.8 meq/L
PL [7]: 114.8 mg/dL
RALB [7]: 3.9 g/dL
TBIL [7]: 0.048 mg/dL
TC [7]: 63.6 mg/dL
TG [7]: 68.6 mg/dL
TP [7]: 5.4 g/dL
gamma-GTP [7]: 0.4 IU/L
TERMINAL_BW [8]: 222.1 g
APTT [8]: 16.4 s
Bas [8]: 0%
Eos [8]: 1.2%
Fbg [8]: 212.6 mg/dL
Hb [8]: 12.3 g/dL
Ht [8]: 37.6%
Lym [8]: 65.6%
MCH [8]: 21.3 pg
MCHC [8]: 32.7%
MCV [8]: 65.1 fL
Mono [8]: 8.4%
Neu [8]: 24.8%
PT [8]: 12.1 s
Plat [8]: 128.4 x10_4/uL
RBC [8]: 578.4 x10_4/ul
Ret [8]: 8.4%
WBC [8]: 96 x10_2/uL
KIDNEY_TOTAL [8]: 0.7 g
LIVER [8]: 10.3 g
A/G [8]: 2.7
ALP [8]: 1526.8 IU/L
ALT [8]: 34.6 IU/L
AST [8]: 65.2 IU/L
BUN [8]: 18 mg/dL
CRE [8]: 0.4 mg/dL
Ca [8]: 11.1 mg/dL
Cl [8]: 104.2 meq/L
DBIL [8]: 0.02 mg/dL
GLC [8]: 183.8 mg/dL
IP [8]: 7.9 mg/dL
K [8]: 4.6 meq/L
LDH [8]: 87.6 IU/L
Na [8]: 140.4 meq/L
PL [8]: 127 mg/dL
RALB [8]: 3.9 g/dL
TBIL [8]: 0.03 mg/dL
TC [8]: 70.2 mg/dL
TG [8]: 113.6 mg/dL
TP [8]: 5.3 g/dL
gamma-GTP [8]: 1 IU/L
